Results taken from patent US6436922B1, “5,11-dihydrobenzo[b,e][1,4]oxazepine derivatives and pharmaceutical compositions containing the same” (Ajinomoto Co., Inc., priority 1996, dated 2002).
Each block holds one compound with its values, some of them ahead of it.

Tests used:
[1] = Decrease in the body temperature of rats; type: in vivo; settings: rat, 100 mg/kg p.o.; for change in body temperature 1 hour: rectal temperature after 1 hour; for change in body temperature 2 hour: rectal temperature after 2 hours; for change in body temperature 5 hour: rectal temperature after 5 hours
Protocol: Decrease in the body temperature of rats:
A suspension of 100 mg/kg of a test compound in 0.5% methyl cellulose was orally administered to each of Crj:CD male rats (from 7 to 8 weeks old), and the body temperature (temperature of the rectum) after 1, 2 or 5 hours was measured using a thermistor thermometer, and the difference in the body temperature between the compound of the present invention and the comparative substance is shown in Table 4.

rat pupillary diameter = assay: Anticholinergic activity by mydriasis of rats; type: in vivo; settings: for rat pupillary diameter (mm) 1 hour / rat pupillary diameter (mm) 2 hours / rat pupillary diameter (mm) 6 hours: 300 mg/kg p.o.; for rat pupillary diameter (mm) 1 hour: after 1 hour; for rat pupillary diameter (mm) 2 hours: after 2 hours; for rat pupillary diameter (mm) 6 hours: after 6 hours; for rat pupillary diameter (mm) before: before administration of 300 mg/kg p.o.
Protocol: Anticholinergic activity by mydriasis of rats: […] The diameter of the pupil after 1, 2 or 6 hours was measured using a stereoscopic microscope of 5x magnification.

WRS-induced defecation = assay: Inhibition of acceleration of stool excretion in a wrap restraint stress (WRS) model; type: in vivo; settings: rat, p.o. 30 minutes before stress, stool over 1 hour, Litchfield-Wilcoxon method
Protocol: In-vivo test [effect of inhibiting acceleration of stool excretion in a wrap restraint stress (WRS) model]:
The test was conducted by the method of William et al. [Gastroenterology, 94, 611 (1988)]. That is, each of Crj:CD male rats (from 6 to 7 weeks old) was slightly etherized, and the fore shoulder, the foreleg and the chest thereof were wrapped with a paper tape to apply stress thereto. The rat was allowed to stand under stress for 1 hour, and the amount of stool excreted during that time was measured. The test compound was orally administered to the rat 30 minutes before applying the stress thereto. The normal group was etherized, and then allowed to stand for 1 hour without applying stress thereto. Thereafter, the amount of stool excreted was measured. In this test, nicardipine and Compound A were used as comparative substances. The 50% inhibition dose (ID50) relative to the increase in the […] of stool owing to WRS was calculated by the Litchfield-Wilcoxon method, and the results are shown in Table 2-1. In addition, and inhibition of test compounds (lomg/kg, p.o.) expressed as a percentage of control were determined and the results were shown in Table 2—2.

tail artery pressure = assay: Decrease in the blood pressure in rats (tail cuff method); type: in vivo; settings: rat, dose causing 20 mmHg decrease in blood pressure 1 hour after administration
Protocol: Decrease in the blood pressure in rats:
This test was conducted by the tail cuff method. That is, each of Crj:CD male rats (from 8 to 9 weeks old) had been warmed to fully expand the tail artery. The tail artery pressure was then measured immediately before, and 1 hour after, the oral administration of the test compound using a non-invasive blood pressure measuring device. In this test, nicardipine and Compound A were used as comparative substances. With respect to the decrease in the blood pressure, a dose at which to cause the decrease in the blood pressure by 20 mmHg from the blood pressure immediately before the administration was calculated as ED20 from the regression line of the decrease (mmHg) in the blood pressure relative to the logarism of the dose of the test compound. As is clear from Tables 2-1 and 2—2, the compound of the present invention has a higher selectivity for the intestinal tract than Compound A, and it can be an excellent agent of improving an abnormal moving function of the digestive tract.

Acute toxicity test = settings: ddy, mouse, in vivo, ip; male mice, i.p., mortality observed for 7 days; read-out: 50% lethal dose (LD50, mg/kg, i.p.)
Crj:CD male rats = assay: Test for a toxicity in continuous administration for 1 week; type: in vivo; settings: rat, 100 mg/kg p.o. once daily for 1 week
Protocol: Test for a toxicity in continuous administration for 1 week:
A suspension of 100 mg/kg of the compound in Example 2 or 12 in 0.5% methyl cellulose was orally administered to each of Crj:CD male rats (6 weeks old) continuously for 1 week at a rate of one administration per day to observe general conditions, to measure the body weight, to conduct biochemical inspection of the blood, to measure the weights of the internal organs and to conduct pathological inspection.

Structure (SMILES): COc1ccc(CCN2CCC[C@@H]2CN2c3ccccc3COc3ccccc32)cc1OC.Cl
melting point: 106 to 109 °C

Structure (SMILES): COc1ccc(CCN2CCC[C@H]2CN2c3ccccc3CSc3ccccc32)cc1.Cl [Compound A, reference compound]
change in body temperature 1 hour [1]: −0.5 | change in body temperature 2 hour [1]: −0.6 | change in body temperature 5 hour [1]: −0.5 | rat pupillary diameter (mm) 1 hour (rat pupillary diameter): 2.18 mm | rat pupillary diameter (mm) 2 hours (rat pupillary diameter): 2.27 mm | rat pupillary diameter (mm) 6 hours (rat pupillary diameter): 2.62 mm | rat pupillary diameter (mm) before (rat pupillary diameter): 0.85 mm | Inhibitory effect on WRS-induced defecation (ID50, mg/kg, p.o.) (WRS-induced defecation): 34.8 mg/kg | Hypotensive effect (ED20, mg/kg, p.o.) (tail artery pressure): >100 mg/kg | LD50 at 7 days (Acute toxicity test): 162 mg/kg

Structure (SMILES): COc1ccc(CCN2CCC[C@@H]2CN2c3ccccc3COc3ccccc32)cc1.Cl [Example 2, (R)-(+)-5,11-dihydro-5-[1-(4-methoxyphenethyl)-2-pyrrolidinylmethyl]-dibenzo[b,e][1,4]oxazepine hydrochloride]
change in body temperature 1 hour [1]: 0 | change in body temperature 2 hour [1]: −0.1 | change in body temperature 5 hour [1]: −0.2 | rat pupillary diameter (mm) 1 hour (rat pupillary diameter): 0.90 mm | rat pupillary diameter (mm) 2 hours (rat pupillary diameter): 0.77 mm | rat pupillary diameter (mm) 6 hours (rat pupillary diameter): 0.97 mm | rat pupillary diameter (mm) before (rat pupillary diameter): 0.97 mm | Inhibitory effect on WRS-induced defecation (ID50, mg/kg, p.o.) (WRS-induced defecation): 3.1 mg/kg | Hypotensive effect (ED20, mg/kg, p.o.) (tail artery pressure): >1000 mg/kg | LD50 at 7 days (Acute toxicity test): 175 mg/kg | toxicity findings (general conditions, body weight, blood biochemistry, organ weights, pathology) (Crj:CD male rats): no remarkable change was observed

Structure (SMILES): Cl.Fc1ccc(CCN2CCC[C@@H]2CN2c3ccccc3COc3ccccc32)cc1 [Example 4, (R)-(+)-5,11-dihydro-5-[1-(4-fluorophenethyl)-2-pyrrolidinylmethyl]dibenzo[b,e][1,4]oxazepine hydrochloride]
change in body temperature 1 hour [1]: −0.3 | change in body temperature 2 hour [1]: −0.2 | change in body temperature 5 hour [1]: +0.1 | rat pupillary diameter (mm) 1 hour (rat pupillary diameter): 0.70 mm | rat pupillary diameter (mm) 2 hours (rat pupillary diameter): 0.57 mm | rat pupillary diameter (mm) 6 hours (rat pupillary diameter): 0.70 mm | rat pupillary diameter (mm) before (rat pupillary diameter): 0.80 mm | Inhibitory effect on WRS-induced defecation (ID50, mg/kg, p.o.) (WRS-induced defecation): 1.8 mg/kg | Hypotensive effect (ED20, mg/kg, p.o.) (tail artery pressure): >1000 mg/kg | LD50 at 7 days (Acute toxicity test): > 200 mg/kg

Structure (SMILES): COc1ccc(CCN2CCC[C@H]2CN2c3ccccc3COc3ccccc32)cc1.Cl [Example 12, (S)-(−)-5,11-dihydro-5-[1-(4-methoxyphenethyl)-2-pyrrolidinylmethyl]dibenzo[b,e][1,4]oxazepine hydrochloride]
LD50 at 7 days (Acute toxicity test): > 280 mg/kg | toxicity findings (general conditions, body weight, blood biochemistry, organ weights, pathology) (Crj:CD male rats): no remarkable change was observed

Structure (SMILES): COC(=O)C1=C(C)NC(C)=C(C(=O)OCCN(C)Cc2ccccc2)C1c1cccc([N+](=O)[O-])c1 (centres unmarked) [nicardipine, reference compound]
Inhibitory effect on WRS-induced defecation (ID50, mg/kg, p.o.) (WRS-induced defecation): 6.8 mg/kg | Hypotensive effect (ED20, mg/kg, p.o.) (tail artery pressure): 4.0 mg/kg

Now from value to compound:

melting point: 109 to 112 °C
Structure (SMILES): Cl.N#Cc1ccc(CCN2CCC[C@@H]2CN2c3ccccc3COc3ccccc32)cc1

melting point: 106 to 109 °C
Structure (SMILES): COc1ccc(CCN2CCC[C@H]2CN2c3ccccc3COc3ccccc32)cc1OC.Cl

melting point: 158 to 162 °C
Structure (SMILES): Cl.c1ccc2c(c1)COc1ccccc1N2C[C@@H]1CCCN1CCc1ccc2c(c1)OCO2

melting point: 164 to 166 °C
Structure (SMILES): COc1cccc(CCN2CCC[C@H]2CN2c3ccccc3COc3ccccc32)c1.Cl

melting point: 179 to 182 °C
Structure (SMILES): Cl.c1ccc(CCN2CCC[C@@H]2CN2c3ccccc3COc3ccccc32)cc1
